The structures appear in SMILES notation.

The series has as its system rats that had Aspirin induced gastrointestinal ulcers. Put plainly: Treatment effects of PU98 on rats that had Aspirin induced gastrointestinal ulcers. Format: in vivo. As to conditions: 200 mg Aspirin intraperitoneal day 1 to day 3 after fasting; thirty rats; internal abdominal bleeding upon dissection. From the text:
PU98 (composition of binary molecular weight of HA that are 70% HA with an average Mw of 2000 KDa and 30% HA with an average Mw of 1000 KDa in PBS solution, the final concentration is 0.5%; i.e. 0.5 g HA in 100 c.c. PBS solution).
Thirty eight-weeks-old SPF Sprague-Dawley male rats (BioLASCO Taiwan Co., Ltd.), were divided into 3 groups: study group (Aspirin/PU98), placebo group (Aspirin/PBS), control group (PBS), each group consisting of 10 rats with 2 rats housed per cage at the Animal Technology Institute Taiwan rodents room.
Before animal experimentation, rats were first fasted for 24 hours or more. From day one (D1) of experimentation to day three (D3), rats were given 1 ml of Aspirin (200 mg/ml) through intraperitoneal administration.
From day 4 to day 18, rats of the study group were given 1 ml of Aspirin (100 mg/ml) daily through intraperitoneal administration, they were also fed a 2 ml dosage of PU98 once every morning and afternoon.
From day 4 to day 18, rats of the placebo group were given 1 ml of Aspirin (100 mg/ml) daily through intraperitoneal administration, however they were fed a 2 ml dosage of PBS (placebo) once every morning and afternoon. […]
The present invention was analyzed by “student t test” to evaluate relationship between the study group, placebo group and control group.

For `CC(=O)Oc1ccccc1C(=O)O` [Aspirin], the “rats died on day 4 after Aspirin induction” value was found to be 11.

Values taken from patent US8722644B2, “Mixture of hyaluronic acid for treating and preventing peptic ulcer and duodenal ulcer” (Holy Stone Healthcare Co., Ltd., priority 2010, dated 2014).
